According to patent US20230146455A1, “TREATMENT OF INFLAMMATORY DISEASES WITH PEPTIDES AND PHARMACEUTICAL COMPOSITIONS” (Yuyu Pharma, Inc., priority 2020, published 2023):
Where “and” joins values, the source holds several entries; their conditions need not be identical. Equal values may be shown once. Where a SMILES comes first, the peptide text is derived from it. [ ]: non-standard residue; d: D form. Hyp = O=C(O)[C@@H]1C[C@@H](O)CN1

Test system: TIMP-1
Assay: Example 9 Luminex, LPS hPBMCs: TIMP-1
Type: cell-based, human
Details: PBMC + LPS(5 ug/ml)
Procedure: Treatment Human PBMCs were pretreated with YY-101, YDE-011 and YDE-043 or reference compound; Xiidra® at various concentration (ranging from 1 nM to 100 uM) for 2 h before stimulation. An equal volume of 0.5% DMSO was used as a vehicle control. Then, the cells were treated with LPS at 5 ug/ml. The supernatants from treated cells were harvested at 24 h and placed in a 96 well for Luminex cytokine & chemokine profiling using a Luminex 200 multiplex assay (Luminex; R&D system, USA).
The main study arm with triplicate wells per group in a 24-well plate: • 1. Blank • 2. PBMC: 0.5% DMSO • 3. PBMC+LPS (5 ug/ml) • 4. PBMC+YY-101 100 uM • 5. PBMC+YY-101 10 uM • 6. PBMC+YY-101 1 uM • 7. PBMC+YY-101 0.1 uM • 8. PBMC+YY-101 0.01 uM • 9. PBMC+LPS (5 ug/ml)+Xiidra®100 uM • 10. PBMC+LPS (5 ug/ml)+Xiidra® 10 uM • 11. PBMC+LPS (5 ug/ml)+Xiidra® 1 uM • 12. PBMC+LPS (5 ug/ml)+Xiidra®0.1 uM • 13. PBMC+LPS (5 ug/ml)+Xiidra®0.01 uM • 14. PBMC+LPS (5 ug/ml)+Xiidra®0.001 uM • 15. PBMC+LPS (5 ug/ml)+YY-101 100 uM • 16. PBMC+LPS (5 ug/ml)+YY-101 10 uM • 17. PBMC+LPS (5 ug/ml)+YY-101 1 uM • 18. PBMC+LPS (5 ug/ml)+YY-101 0.1 uM • 19. PBMC+LPS (5 ug/ml)+YY-101 0.01 uM • 20. PBMC+LPS (5 ug/ml)+YY-101 0.001 uM • 21. PBMC+LPS (5 ug/ml)+YDE-011 100 uM • 22. PBMC+LPS (5 ug/ml)+YDE-011 10 uM • 23. PBMC+LPS (5 ug/ml)+YDE-011 1 uM • 24. PBMC+LPS (5 ug/ml)+YDE-011 0.1 uM • 25. PBMC+LPS (5 ug/ml)+YDE-011 0.01 uM • 26. PBMC+LPS (5 ug/ml)+YDE-011 0.001 uM • 27. PBMC+LPS (5 ug/ml)+YDE-043 100 uM • 28. PBMC+LPS (5 ug/ml)+YDE-043 10 uM • 29. PBMC+LPS (5 ug/ml)+YDE-043 1 uM • 30. PBMC+LPS (5 ug/ml)+YDE-043 0.1 uM • 31. PBMC+LPS (5 ug/ml)+YDE-043 0.01 uM • 32. PBMC+LPS (5 ug/ml)+YDE-043 0.001 uM
Multiplex assay was used to measure 30 cytokines and chemokines. The 1:2, 1:10 and 1:200 diluted cell supernatant and serial dilution of the standard were dispensed into a 96 well plate at 50 ul/well. Then, the pre-mixed cocktail of antibody-coated magnetic beads was dispensed at 50 ul/well and incubated at room temperature for 2 h in a horizontal orbital microplate shaker at 800±500 rpm. The beads were washed using a magnetic device to prevent loss. The biotin-antibody was dispensed in 50 ul of each well and incubated at room temperature for 1 h in a shaker at 800±500 rpm. After washing, streptavidin-PE was added at 50 ul/well and incubated at room temperature for 30 min in a shaker under the same conditions. Finally, after washing, wash buffer (100 ul/well) was added to the plate and incubated in a shaker for 2 min. The Luminex™ 200 setting were set according to the manufacturer's protocol. The data was calculated with a standard five-parameter logistic nonlinear regression analysis of the data (xPonent software 4.2, USA). The levels of cytokine/chemokine are normalized to the live cell counts (1×10^5 cells/mL) and presented as concentrations per mL (pg/mL or ng/mL).

[1] = test article 0.001 uM, single replicates
[2] = test article 0.01 uM, single replicates
[3] = test article 0.1 uM, single replicates
[4] = test article 1 uM, single replicates
[5] = test article 10 uM, single replicates
[6] = test article 100 uM, single replicates

SMILES	TIMP-1 Concentration (test article 0.001 uM, Mean)	TIMP-1 MFI (test article 0.001 uM, Mean)	TIMP-1 conc/live cell (test article 0.001 uM, Mean)	TIMP-1 Concentration [1]	TIMP-1 MFI [1]	TIMP-1 conc/live cell [1]	TIMP-1 Concentration (test article 0.01 uM, Mean)	TIMP-1 MFI (test article 0.01 uM, Mean)	TIMP-1 conc/live cell (test article 0.01 uM, Mean)	TIMP-1 Concentration [2]	TIMP-1 MFI [2]	TIMP-1 conc/live cell [2]	TIMP-1 Concentration (test article 0.1 uM, Mean)	TIMP-1 MFI (test article 0.1 uM, Mean)	TIMP-1 conc/live cell (test article 0.1 uM, Mean)	TIMP-1 Concentration [3]	TIMP-1 MFI [3]	TIMP-1 conc/live cell [3]	TIMP-1 Concentration (test article 1 uM, Mean)	TIMP-1 MFI (test article 1 uM, Mean)	also measured
CC(C)C[C@H](NC(=O)CNC(=O)[C@H](CC(C)C)NC(=O)[C@H](CCC(N)=O)NC(=O)CNC(=O)[C@@H]1C[C@@H](O)CN1)C(=O)N[C@@H](C)C(=O)NCC(=O)N1CCC[C@H]1C(=O)N[C@@H](CCCCN)C(=O)O [YDE-011] (H-[Hyp]GQLGLAGPK-OH)	1792.7 pg/mL	946.7	339.5 pg/10^5	1831.6 pg/mL and 1659.9 pg/mL and 1886.6 pg/mL	974.0 and 852.5 and 1013.5	407.0 pg/10^5 and 286.2 pg/10^5 and 325.3 pg/10^5	1879.9 pg/mL	1009.2	325.5 pg/10^5	1811.3 pg/mL and 2050.0 pg/mL and 1778.3 pg/mL	959.5 and 1132.0 and 936.0	292.1 pg/10^5 and 402.0 pg/10^5 and 282.3 pg/10^5	1831.1 pg/mL	974.2	320.0 pg/10^5	1879.7 pg/mL and 1677.8 pg/mL and 1935.9 pg/mL	1008.5 and 865.0 and 1049.0	284.8 pg/10^5 and 335.6 pg/10^5 and 339.6 pg/10^5	1791.4 pg/mL	945.5	TIMP-1 conc/live cell (test article 1 uM, Mean): 356.7 pg/10^5; TIMP-1 Concentration [4]: 1869.9 pg/mL and 1750.8 pg/mL and 1753.6 pg/mL; TIMP-1 MFI [4]: 1001.5 and 916.5 and 918.5; TIMP-1 conc/live cell [4]: 340.0 pg/10^5 and 364.7 pg/10^5 and 365.3 pg/10^5; TIMP-1 Concentration (test article 10 uM, Mean): 1768.2 pg/mL; TIMP-1 MFI (test article 10 uM, Mean): 929.0; TIMP-1 conc/live cell (test article 10 uM, Mean): 335.3 pg/10^5; TIMP-1 Concentration [5]: 1820.4 pg/mL and 1794.4 pg/mL and 1689.9 pg/mL; TIMP-1 MFI [5]: 966.0 and 947.5 and 873.5; TIMP-1 conc/live cell [5]: 337.1 pg/10^5 and 309.4 pg/10^5 and 359.5 pg/10^5; TIMP-1 Concentration (test article 100 uM, Mean): 2184.4 pg/mL; TIMP-1 MFI (test article 100 uM, Mean): 1231.0; TIMP-1 conc/live cell (test article 100 uM, Mean): 360.0 pg/10^5; TIMP-1 Concentration [6]: 2326.8 pg/mL and 2121.7 pg/mL and 2104.6 pg/mL; TIMP-1 MFI [6]: 1336.5 and 1184.5 and 1172.0; TIMP-1 conc/live cell [6]: 381.4 pg/10^5 and 347.8 pg/10^5 and 350.8 pg/10^5
CC(C)C[C@H](NC(=O)[C@H](CCC(N)=O)NC(=O)CNC(=O)[C@@H]1C[C@@H](O)CN1)C(=O)NCC(=O)O [YDE-043] (H-[Hyp]GQLG-OH; N-terminus and C-terminus assumed)	2001.5 pg/mL	1096.8	406.7 pg/10^5	1887.3 pg/mL and 2046.6 pg/mL and 2070.5 pg/mL	1014.0 and 1129.5 and 1147.0	428.9 pg/10^5 and 341.1 pg/10^5 and 450.1 pg/10^5	1986.7 pg/mL	1085.8	380.0 pg/10^5	2007.5 pg/mL and 1991.7 pg/mL and 1960.7 pg/mL	1101.0 and 1089.5 and 1067.0	446.1 pg/10^5 and 301.8 pg/10^5 and 392.1 pg/10^5	1829.5 pg/mL	972.8	339.9 pg/10^5	1850.4 pg/mL and 1718.3 pg/mL and 1919.9 pg/mL	987.5 and 893.5 and 1037.5	370.1 pg/10^5 and 306.8 pg/10^5 and 342.8 pg/10^5	1838.3 pg/mL	979.0	TIMP-1 conc/live cell (test article 1 uM, Mean): 348.3 pg/10^5; TIMP-1 Concentration [4]: 1928.2 pg/mL and 1809.9 pg/mL and 1776.9 pg/mL; TIMP-1 MFI [4]: 1043.5 and 958.5 and 935.0; TIMP-1 conc/live cell [4]: 332.5 pg/10^5 and 377.1 pg/10^5 and 335.3 pg/10^5; TIMP-1 Concentration (test article 10 uM, Mean): 1844.9 pg/mL; TIMP-1 MFI (test article 10 uM, Mean): 983.7; TIMP-1 conc/live cell (test article 10 uM, Mean): 342.1 pg/10^5; TIMP-1 Concentration [5]: 1853.9 pg/mL and 1912.3 pg/mL and 1768.4 pg/mL; TIMP-1 MFI [5]: 990.0 and 1032.0 and 929.0; TIMP-1 conc/live cell [5]: 356.5 pg/10^5 and 354.1 pg/10^5 and 315.8 pg/10^5; TIMP-1 Concentration (test article 100 uM, Mean): 2156.3 pg/mL; TIMP-1 MFI (test article 100 uM, Mean): 1210.3; TIMP-1 conc/live cell (test article 100 uM, Mean): 342.6 pg/10^5; TIMP-1 Concentration [6]: 2247.5 pg/mL and 2065.1 pg/mL; TIMP-1 MFI [6]: 1277.5 and 1143.0; TIMP-1 conc/live cell [6]: 362.5 pg/10^5 and 322.7 pg/10^5
